Reference: patent US10975068B2, “6-aminopyridin-3-yl thiazoles as modulators of RORγT” (Janssen Pharmaceutica NV, priority 2016, dated 2021)
pIC50: −log10 of the molar value. Where two headings read alike, the source gives them in different places.

Target: full-length human RORγt (Homo sapiens (Human), UniProt P51449)
Assay: RORγt (full-length human) reporter assay, Conditions B or C
Assay type: cell-based
Settings: for RORγt (FL) Reporter Assay B or C, % inhibition (value marked *): marked *: footnote not given; for pIC50: read-out: RORγt (FL) Reporter Assay B or C, IC50; for inhibition at 6 µM: read-out: RORγt (FL) Reporter Assay B or C, % inhibition @ 6 μM, Conditions B or C
Outline: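 Readout is dual luciferase: firefly (GAL4-driven) normalized to DMSO-only and saturating-reference controls, then to CMV-Renilla. Full-length human RORγt fused to GAL4-DBD was transiently expressed in HEK293T; compound exposure ran overnight (16-20 h) starting 4-6 h after transfection, final FBS 1.3%, DMSO 0.1%.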

Chain of full-length human RORγt (P51449 other isoform, or with tags, fused parts or gaps): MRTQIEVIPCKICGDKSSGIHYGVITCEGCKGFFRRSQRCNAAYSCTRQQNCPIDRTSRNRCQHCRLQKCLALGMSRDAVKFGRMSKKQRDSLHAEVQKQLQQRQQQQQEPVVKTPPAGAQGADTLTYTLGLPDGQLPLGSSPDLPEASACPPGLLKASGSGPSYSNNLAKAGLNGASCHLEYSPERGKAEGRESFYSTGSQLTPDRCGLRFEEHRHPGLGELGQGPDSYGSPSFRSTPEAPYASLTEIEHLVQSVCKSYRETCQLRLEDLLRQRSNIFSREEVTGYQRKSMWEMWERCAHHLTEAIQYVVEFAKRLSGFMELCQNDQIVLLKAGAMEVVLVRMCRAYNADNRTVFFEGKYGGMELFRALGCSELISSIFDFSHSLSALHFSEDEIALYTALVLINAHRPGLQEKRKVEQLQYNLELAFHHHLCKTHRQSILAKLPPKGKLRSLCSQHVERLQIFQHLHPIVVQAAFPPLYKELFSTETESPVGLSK

SMILES	RORγt (FL) Reporter Assay B or C, % inhibition (value marked *) (Conditions B or C)	pIC50 (Conditions B or C)	inhibition at 3 µM (at 3 μM compound concentration, read-out: RORγt (FL) Reporter Assay B or C, % inhibition)	pIC50	inhibition at 6 µM
C[C@H]1CCCN1C(=O)c1nc(C(=O)NCC(C)(C)O)sc1-c1cnc(NCC(C)(C)C)cc1C(F)(F)F [Example 87, (S)—N-(2-Hydroxy-2-methylpropyl)-4-(2-methylpyrrolidine-1-carbonyl)-5-(6-(neopentylamino)-4-(trifluoromethyl)pyridin-3-yl)thiazole-2-carboxamide]	140* %	7.54	–	–	–
C[C@H](Nc1cc(C(F)(F)F)c(-c2sc(C(=O)NCC(C)(C)O)nc2C(=O)N2CCC[C@@H]2C)cn1)C(F)(F)F [Example 78, N-(2-Hydroxy-2-methylpropyl)-4-((S)-2-methylpyrrolidine-1-carbonyl)-5-(4-(trifluoromethyl)-6-(((S)-1,1,1-trifluoropropan-2-yl)amino)pyridin-3-yl)thiazole-2-carboxamide]	110* %	7.31	–	–	–
C[C@H]1CCCN1C(=O)c1nc(C(=O)NCc2n[nH]c(=O)o2)sc1-c1cnc(NC(C)(C)C)cc1C(F)(F)F [Example 305, (S)-5-(6-(tert-Butylamino)-4-(trifluoromethyl)pyridin-3-yl)-4-(2-methylpyrrolidine-1-carbonyl)-N-((5-oxo-4,5-dihydro-1,3,4-oxadiazol-2-yl)methyl)thiazole-2-carboxamide]	–	–	100%	7.44	–
C[C@H](Nc1cc(C(F)F)c(-c2sc(C(=O)NCC(C)(C)O)nc2C(=O)N2CC(F)(F)C[C@@H]2C)cn1)C(F)(F)F [Example 135]	100* %	7.41	–	–	–
CC(C)(C)CNc1cc(C(F)F)c(-c2sc(C(=O)NCC(C)(C)O)nc2C(=O)N2C3CCC2CC3)cn1 [Example 116, 4-((1s,4s)-7-Azabicyclo[2.2.1]heptane-7-carbonyl)-5-(4-(difluoromethyl)-6-(neopentylamino)pyridin-3-yl)-N-(2-hydroxy-2-methylpropyl)thiazole-2-carboxamide]	110* %	7.47	–	–	–
C[C@H]1CCCN1C(=O)c1nc(C(=O)NCC(C)(C)O)sc1-c1cnc(NC(C)(C)C)cc1C(F)(F)F [Example 52, (S)-5-(6-(tert-Butylamino)-4-(trifluoromethyl)pyridin-3-yl)-N-(2-hydroxy-2-methylpropyl)-4-(2-methylpyrrolidine-1-carbonyl)thiazole-2-carboxamide]	106* %	8.06	–	–	–
C[C@H](NC(=O)c1nc(C(=O)N2CC(F)(F)C[C@@H]2C)c(-c2cnc(N[C@@H](C)C(F)(F)F)cc2C(F)F)s1)C(C)(C)O [Example 197]	91* %	7.18	–	–	–

Second part, the compound after the results:

RORγt (FL) Reporter Assay B or C, % inhibition (value marked *) (Conditions B or C)	pIC50 (Conditions B or C)	inhibition at 3 µM (at 3 μM compound concentration, read-out: RORγt (FL) Reporter Assay B or C, % inhibition)	pIC50	inhibition at 6 µM	SMILES
95* %	8.17	–	–	–	C[C@H]1CCCN1C(=O)c1nc(C(=O)NC[C@@H](O)C(C)(C)O)sc1-c1cnc(NC(C)(C)C)cc1C(F)(F)F (single isomer, unassigned) [Example 243, 5-(6-(tert-Butylamino)-4-(trifluoromethyl)pyridin-3-yl)-N—((R*)-2,3-dihydroxy-3-methylbutyl)-4-((S)-2-methylpyrrolidine-1-carbonyl)thiazole-2-carboxamide]
–	8.08	–	–	106%	C[C@H]1CCCCN1C(=O)c1nc(C(=O)NCC(C)(C)O)sc1-c1cnc(NC2CCCC2)cc1C(F)(F)F [Example 27, (S)-5-(6-(Cyclopentylamino)-4-(trifluoromethyl)pyridin-3-yl)-N-(2-hydroxy-2-methylpropyl)-4-(2-methylpiperidine-1-carbonyl)thiazole-2-carboxamide]
127* %	7.89	–	–	–	C[C@H]1CCCCN1C(=O)c1nc(C(=O)NCC(C)(C)O)sc1-c1cnc(NCC(C)(C)C)cc1C(F)(F)F [Example 86, (S)—N-(2-Hydroxy-2-methylpropyl)-4-(2-methylpiperidine-1-carbonyl)-5-(6-(neopentylamino)-4-(trifluoromethyl)pyridin-3-yl)thiazole-2-carboxamide]
108* %	7.68	–	–	–	C[C@H]1CC(F)(F)CN1C(=O)c1nc(C(=O)NCC(C)(C)O)sc1-c1cnc(NC2(C(F)(F)F)CCC2)cc1C(F)F [Example 124, (S)-4-(4,4-Difluoro-2-methylpyrrolidine-1-carbonyl)-5-(4-(difluoromethyl)-6-((1-(trifluoromethyl)cyclobutyl)amino)pyridin-3-yl)-N-(2-hydroxy-2-methylpropyl)thiazole-2-carboxamide]
109* %	7.57	–	–	–	C[C@H](Nc1cc(C(F)(F)F)c(-c2sc(C(=O)NCC(C)(C)O)nc2C(=O)N2CC(F)(F)C[C@@H]2C)cn1)C1CC1 [Example 142, 5-(6-(((S)-1-Cyclopropylethyl)amino)-4-(trifluormethyl)pyridin-3-yl)-4-((S)-4,4-difluoro-2-methylpyrrolidine-1-carbonyl)-N-(2-hydroxy-2-methylpropyl)thiazole-2-carboxamide]
–	7.85	–	–	92.2%	C[C@H](Nc1cc(C(F)F)c(-c2sc(C(=O)NCC(C)(C)O)nc2C(=O)N2CCCC[C@@H]2C)cn1)C1CC1 [Example 37, 5-(6-(((S)-1-Cyclopropylethyl)amino)-4-(difluoromethyl)pyridin-3-yl)-N-(2-hydroxy-2-methylpropyl)-4-((S)-2-methylpiperidine-1-carbonyl)thiazole-2-carboxamide]
–	8.12	–	–	103%	C[C@H]1CCCCN1C(=O)c1nc(C(=O)NCC(C)(C)O)sc1-c1cnc(NC2CCCC2)cc1C(F)F [Example 41, (S)-5-(6-(Cyclopentylamino)-4-(difluoromethyl)pyridin-3-yl)-N-(2-hydroxy-2-methylpropyl)-4-(2-methylpiperidine-1-carbonyl)thiazole-2-carboxamide]
